Reference: article PMC10950554 (Methods in enzymology, 2023)

Target: ERK2 (Rattus norvegicus, UniProt P63086)
Experiment: competitive fluorescence anisotropy displacement of FITC-X-Lig-D
Format: binding

Sequence of ERK2 (P63086 2-358): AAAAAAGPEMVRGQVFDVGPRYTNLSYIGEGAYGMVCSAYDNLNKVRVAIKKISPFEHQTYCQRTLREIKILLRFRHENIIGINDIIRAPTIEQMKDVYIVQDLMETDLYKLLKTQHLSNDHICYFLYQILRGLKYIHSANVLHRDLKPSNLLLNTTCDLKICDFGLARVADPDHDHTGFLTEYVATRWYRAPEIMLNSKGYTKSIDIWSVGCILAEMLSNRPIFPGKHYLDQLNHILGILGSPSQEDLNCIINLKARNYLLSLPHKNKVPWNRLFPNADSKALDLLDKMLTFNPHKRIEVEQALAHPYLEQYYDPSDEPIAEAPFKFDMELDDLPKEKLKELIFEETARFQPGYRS

CC1(C)C2CCC(CN=C(N)CSS(=O)(=O)O)C1C2 (stereo not shown) [NSC 194308]
Ki: 730 ± 260 nM
